According to ChEMBL document CHEMBL4376820, “Homodimeric Tobramycin Adjuvant Repurposes Novobiocin as an Effective Antibacterial Agent against Gram-Negative Bacteria” (J Med Chem, 2019):
Activity calls are given as the source filed them. The calls are words filed in the database; no cut-off is given here.

What was measured:
Pseudomonas aeruginosa [1] = experiment: Synergistic antibacterial activity against wild type Pseudomonas aeruginosa PAO1 assessed as potentiation of cefotaxime-induced antibacterial effect incubated for 18 hrs by checkerboard assay; assay type: functional, organism-based
Pseudomonas aeruginosa [2] = experiment: Synergistic antibacterial activity against wild type Pseudomonas aeruginosa PAO1 assessed as potentiation of minocycline-induced antibacterial effect incubated for 18 hrs by checkerboard assay; assay type: functional, organism-based
Pseudomonas aeruginosa [3] = experiment: Synergistic antibacterial activity against wild type Pseudomonas aeruginosa PAO1 assessed as potentiation of meropenem-induced antibacterial effect incubated for 18 hrs by checkerboard assay; assay type: functional, organism-based
HEK293 = experiment: Cytotoxicity against human HEK293 cells at 50 uM incubated for 48 hrs by PrestoBlue dye based fluorescence assay; assay type: cell-based; conditions: hek293, 48 h
HepG2 = experiment: Cytotoxicity against human HepG2 cells at 50 uM incubated for 48 hrs by PrestoBlue dye based fluorescence assay; assay type: cell-based; conditions: hepg2, 48 h
Erythrocyte = experiment: Hemolytic activity against porcine erythrocytes assessed as hemoglobin release at 1024 ug/ml incubated for 1 hr by microplate reader analysis; assay type: ADME, cell-based, Sus scrofa; conditions: pig
[4] = Toxicity in Galleria mellonella larvae assessed as survivability at 200 mg/kg measured every 6 hrs for 72 hrs; assay type: organism-based; conditions: in vivo
Pseudomonas aeruginosa [5] = experiment: Synergistic antibacterial activity against wild type Pseudomonas aeruginosa PAO1 assessed as potentiation of rifampicin-induced antibacterial effect incubated for 18 hrs by checkerboard assay; assay type: functional, organism-based
Pseudomonas aeruginosa [6] = experiment: Synergistic antibacterial activity against wild type Pseudomonas aeruginosa PAO1 assessed as potentiation of doxycycline-induced antibacterial effect incubated for 18 hrs by checkerboard assay; assay type: functional, organism-based
Pseudomonas aeruginosa [7] = experiment: Synergistic antibacterial activity against wild type Pseudomonas aeruginosa PAO1 assessed as potentiation of linezolid-induced antibacterial effect incubated for 18 hrs by checkerboard assay; assay type: functional, organism-based
Pseudomonas aeruginosa [8] = experiment: Synergistic antibacterial activity against wild type Pseudomonas aeruginosa PAO1 assessed as potentiation of moxifloxacin-induced antibacterial effect incubated for 18 hrs by checkerboard assay; assay type: functional, organism-based
Pseudomonas aeruginosa [9] = experiment: Synergistic antibacterial activity against wild type Pseudomonas aeruginosa PAO1 assessed as potentiation of ciprofloxacin-induced antibacterial effect incubated for 18 hrs by checkerboard assay; assay type: functional, organism-based
Pseudomonas aeruginosa [10] = experiment: Synergistic antibacterial activity against wild type Pseudomonas aeruginosa PAO1 assessed as potentiation of levofloxacin-induced antibacterial effect incubated for 18 hrs by checkerboard assay; assay type: functional, organism-based
Pseudomonas aeruginosa [11] = experiment: Synergistic antibacterial activity against wild type Pseudomonas aeruginosa PAO1 assessed as potentiation of aztreonam-induced antibacterial effect incubated for 18 hrs by checkerboard assay; assay type: functional, organism-based
Pseudomonas aeruginosa [12] = experiment: Synergistic antibacterial activity against wild type Pseudomonas aeruginosa PAO1 assessed as potentiation of ceftazidime-induced antibacterial effect incubated for 18 hrs by checkerboard assay; assay type: functional, organism-based
Pseudomonas aeruginosa [13] = experiment: Synergistic antibacterial activity against wild type Pseudomonas aeruginosa PAO1 assessed as potentiation of fosfomycin-induced antibacterial effect incubated for 18 hrs by checkerboard assay; assay type: functional, organism-based
Pseudomonas aeruginosa [14] = experiment: Synergistic antibacterial activity against wild type Pseudomonas aeruginosa PAO1 assessed as potentiation of chloramphenicol-induced antibacterial effect incubated for 18 hrs by checkerboard assay; assay type: functional, organism-based
Pseudomonas aeruginosa [15] = experiment: Synergistic antibacterial activity against wild type Pseudomonas aeruginosa PAO1 assessed as potentiation of clindamycin-induced antibacterial effect incubated for 18 hrs by checkerboard assay; assay type: functional, organism-based
Pseudomonas aeruginosa [16] = experiment: Synergistic antibacterial activity against wild type Pseudomonas aeruginosa PAO1 assessed as potentiation of piperacillin-induced antibacterial effect incubated for 18 hrs by checkerboard assay; assay type: functional, organism-based
Pseudomonas aeruginosa [17] = experiment: Synergistic antibacterial activity against wild type Pseudomonas aeruginosa PAO1 assessed as potentiation of novobiocin-induced antibacterial effect incubated for 18 hrs by checkerboard assay; assay type: functional, organism-based
Pseudomonas aeruginosa [18] = experiment: Synergistic antibacterial activity against wild type Pseudomonas aeruginosa PAO1 assessed as potentiation of tobramycin-induced antibacterial effect at <= 7.1 uM incubated for 18 hrs by checkerboard assay; assay type: functional, organism-based
Pseudomonas aeruginosa [19] = experiment: Synergistic antibacterial activity against wild type Pseudomonas aeruginosa PAO1 assessed as potentiation of vancomycin-induced antibacterial effect at <=7.1 uM incubated for 18 hrs by checkerboard assay; assay type: functional, organism-based
Pseudomonas aeruginosa [20] = experiment: Synergistic antibacterial activity against wild type Pseudomonas aeruginosa PAO1 assessed as potentiation of colistin-induced antibacterial effect at <=7.1 uM incubated for 18 hrs by checkerboard assay; assay type: functional, organism-based
Pseudomonas aeruginosa [21] = experiment: Antibacterial activity against wild type Pseudomonas aeruginosa PAO1 assessed as fractional inhibitory concentration index incubated for 18 hrs in presence of tobramycin by checkerboard assay; assay type: functional
Pseudomonas aeruginosa [22] = experiment: Antibacterial activity against wild type Pseudomonas aeruginosa PAO1 assessed as fractional inhibitory concentration index incubated for 18 hrs in presence of colistin by checkerboard assay; assay type: functional
Pseudomonas aeruginosa [23] = experiment: Synergistic antibacterial activity against wild type Pseudomonas aeruginosa PAO1 assessed as potentiation of rifampicin-induced antibacterial effect incubated for 18 hrs by checkerboard assay relative to rifampicin alone; assay type: functional
Pseudomonas aeruginosa [24] = experiment: Synergistic antibacterial activity against wild type Pseudomonas aeruginosa PAO1 assessed as potentiation of minocycline-induced antibacterial effect incubated for 18 hrs by checkerboard assay relative to minocycline alone; assay type: functional
Pseudomonas aeruginosa [25] = experiment: Synergistic antibacterial activity against wild type Pseudomonas aeruginosa PAO1 assessed as potentiation of cefotaxime-induced antibacterial effect incubated for 18 hrs by checkerboard assay relative to cefotaxime alone; assay type: functional
Pseudomonas aeruginosa [26] = experiment: Synergistic antibacterial activity against wild type Pseudomonas aeruginosa PAO1 assessed as potentiation of doxycycline-induced antibacterial effect incubated for 18 hrs by checkerboard assay relative to doxycycline alone; assay type: functional
Pseudomonas aeruginosa [27] = experiment: Synergistic antibacterial activity against wild type Pseudomonas aeruginosa PAO1 assessed as potentiation of linezolid-induced antibacterial effect incubated for 18 hrs by checkerboard assay relative to linezolid alone; assay type: functional
Pseudomonas aeruginosa [28] = experiment: Synergistic antibacterial activity against wild type Pseudomonas aeruginosa PAO1 assessed as potentiation of meropenem-induced antibacterial effect incubated for 18 hrs by checkerboard assay relative to meropenem alone; assay type: functional
Pseudomonas aeruginosa [29] = experiment: Synergistic antibacterial activity against wild type Pseudomonas aeruginosa PAO1 assessed as potentiation of moxifloxacin-induced antibacterial effect incubated for 18 hrs by checkerboard assay relative to moxifloxacin alone; assay type: functional
Pseudomonas aeruginosa [30] = experiment: Synergistic antibacterial activity against wild type Pseudomonas aeruginosa PAO1 assessed as potentiation of ciprofloxacin-induced antibacterial effect incubated for 18 hrs by checkerboard assay relative to ciprofloxacin alone; assay type: functional
Pseudomonas aeruginosa [31] = experiment: Synergistic antibacterial activity against wild type Pseudomonas aeruginosa PAO1 assessed as potentiation of levofloxacin-induced antibacterial effect incubated for 18 hrs by checkerboard assay relative to levofloxacin alone; assay type: functional
Pseudomonas aeruginosa [32] = experiment: Synergistic antibacterial activity against wild type Pseudomonas aeruginosa PAO1 assessed as potentiation of aztreonam-induced antibacterial effect incubated for 18 hrs by checkerboard assay relative to aztreonam alone; assay type: functional
Pseudomonas aeruginosa [33] = experiment: Synergistic antibacterial activity against wild type Pseudomonas aeruginosa PAO1 assessed as potentiation of ceftazidime-induced antibacterial effect incubated for 18 hrs by checkerboard assay relative to ceftazidime alone; assay type: functional
Pseudomonas aeruginosa [34] = experiment: Synergistic antibacterial activity against wild type Pseudomonas aeruginosa PAO1 assessed as potentiation of fosfomycin-induced antibacterial effect incubated for 18 hrs by checkerboard assay relative to fosfomycin alone; assay type: functional
Pseudomonas aeruginosa [35] = experiment: Synergistic antibacterial activity against wild type Pseudomonas aeruginosa PAO1 assessed as potentiation of chloramphenicol-induced antibacterial effect incubated for 18 hrs by checkerboard assay relative to chloramphenicol alone; assay type: functional
Pseudomonas aeruginosa [36] = experiment: Synergistic antibacterial activity against wild type Pseudomonas aeruginosa PAO1 assessed as potentiation of clindamycin-induced antibacterial effect incubated for 18 hrs by checkerboard assay relative to clindamycin alone; assay type: functional
Pseudomonas aeruginosa [37] = experiment: Synergistic antibacterial activity against wild type Pseudomonas aeruginosa PAO1 assessed as potentiation of novobiocin-induced antibacterial effect incubated for 18 hrs by checkerboard assay relative to novobiocin alone; assay type: functional
Pseudomonas aeruginosa [38] = experiment: Synergistic antibacterial activity against wild type Pseudomonas aeruginosa PAO1 assessed as potentiation of piperacillin-induced antibacterial effect incubated for 18 hrs by checkerboard assay relative to piperacillin alone; assay type: functional
Acinetobacter baumannii [39] = experiment: Antibacterial activity against wild type Acinetobacter baumannii ATCC 17978 assessed as resistant development at sub-MIC measured after 7 days of passaging by microbroth dilution method relative to control; assay type: functional
Acinetobacter baumannii [40] = experiment: Antibacterial activity against novobiocin-resistant Acinetobacter baumannii ATCC 17978 mutant generated from seven serial passages by checkerboard assay; assay type: functional
Acinetobacter baumannii [41] = experiment: Antibacterial activity against colistin-resistant Acinetobacter baumannii ATCC 17978 mutant generated from seven serial passages by checkerboard assay; assay type: functional
Acinetobacter baumannii [42] = experiment: Antibacterial activity against novobiocin and test compound-resistant Acinetobacter baumannii ATCC 17978 mutant generated from seven serial passages in presence of novobiocin by checkerboard assay; assay type: functional
Acinetobacter baumannii [43] = experiment: Antibacterial activity against wild type Acinetobacter baumannii ATCC 17978 by checkerboard assay; assay type: functional

## NC[C@H]1O[C@H](O[C@H]2[C@H](OCCCCCCCCn3cc(CCCCO[C@@H]4[C@@H](O[C@H]5O[C@H](CO)[C@@H](O)[C@H](N)[C@H]5O)[C@H](N)C[C@H](N)[C@H]4O[C@H]4O[C@H](CN)[C@@H](O)C[C@H]4N)nn3)[C@@H](O[C@H]3O[C@H](CO)[C@@H](O)[C@H](N)[C@H]3O)[C@H](N)C[C@@H]2N)[C@H](N)C[C@@H]1O.O=C(O)C(F)(F)F.O=C(O)C(F)(F)F.O=C(O)C(F)(F)F.O=C(O)C(F)(F)F.O=C(O)C(F)(F)F.O=C(O)C(F)(F)F.O=C(O)C(F)(F)F.O=C(O)C(F)(F)F.O=C(O)C(F)(F)F.O=C(O)C(F)(F)F
Pseudomonas aeruginosa [1]
  Activity: Dose-dependent effect
Pseudomonas aeruginosa [2]
  Activity: Dose-dependent effect
Pseudomonas aeruginosa [3]
  Activity: Dose-dependent effect
HEK293
  Activity: Non-Toxic
HepG2
  Activity: Non-Toxic
Erythrocyte
  Activity: Non-Toxic
[4]
  Activity: Non-Toxic
Pseudomonas aeruginosa [5]
  Activity: Dose-dependent effect
Pseudomonas aeruginosa [6]
  Activity: Dose-dependent effect
Pseudomonas aeruginosa [7]
  Activity: Dose-dependent effect
Pseudomonas aeruginosa [8]
  Activity: Dose-dependent effect
Pseudomonas aeruginosa [9]
  Activity: Dose-dependent effect
Pseudomonas aeruginosa [10]
  Activity: Dose-dependent effect
Pseudomonas aeruginosa [11]
  Activity: Dose-dependent effect
Pseudomonas aeruginosa [12]
  Activity: Dose-dependent effect
Pseudomonas aeruginosa [13]
  Activity: Dose-dependent effect
Pseudomonas aeruginosa [14]
  Activity: Dose-dependent effect
Pseudomonas aeruginosa [15]
  Activity: Dose-dependent effect
Pseudomonas aeruginosa [16]
  Activity: Dose-dependent effect
Pseudomonas aeruginosa [17]
  Activity: Dose-dependent effect
Pseudomonas aeruginosa [18]
  Activity: inactive
Pseudomonas aeruginosa [19]
  Activity: inactive
Pseudomonas aeruginosa [20]
  Activity: inactive
Pseudomonas aeruginosa [21]
  fractional inhibitory concentration index (FICI): >4
Pseudomonas aeruginosa [22]
  fractional inhibitory concentration index (FICI): >4
Pseudomonas aeruginosa [23]
  fold change (FC): 4 - 128
Pseudomonas aeruginosa [24]
  fold change (FC): 4 - 128
Pseudomonas aeruginosa [25]
  fold change (FC): 4 - 128
Pseudomonas aeruginosa [26]
  fold change (FC): 4 - 128
Pseudomonas aeruginosa [27]
  fold change (FC): 4 - 128
Pseudomonas aeruginosa [28]
  fold change (FC): 4 - 128
Pseudomonas aeruginosa [29]
  fold change (FC): 4 - 128
Pseudomonas aeruginosa [30]
  fold change (FC): 4 - 128
Pseudomonas aeruginosa [31]
  fold change (FC): 4 - 128
Pseudomonas aeruginosa [32]
  fold change (FC): 4 - 128
Pseudomonas aeruginosa [33]
  fold change (FC): 4 - 128
Pseudomonas aeruginosa [34]
  fold change (FC): 4 - 128
Pseudomonas aeruginosa [35]
  fold change (FC): 4 - 128
Pseudomonas aeruginosa [36]
  fold change (FC): 4 - 128
Pseudomonas aeruginosa [37]
  fold change (FC): 4 - 128
Pseudomonas aeruginosa [38]
  fold change (FC): 4 - 128

## COLISTIN
Acinetobacter baumannii [39]
  fold change (FC): 1024
Acinetobacter baumannii [40]
  MIC: 8 µg/mL
Acinetobacter baumannii [41]
  MIC: 1020 µg/mL
Acinetobacter baumannii [42]
  MIC: 0.031 µg/mL
Acinetobacter baumannii [43]
  MIC: 0.063 µg/mL
